{"source": "patent US9492471B2", "about": "“Methods of treating a disease or disorder associated with Bruton'S Tyrosine Kinase” (Celgene Avilomics Research, Inc., priority 2013, dated 2016)", "experiment_in_all_cases": "HotSpot kinase profiling", "assay_type_in_all_cases": "biochemical", "key": {"EPHA3": {"biological_target": "T1, EPHA3 (Homo sapiens, UniProt P29320)", "T1 construct": "purchased Reaction Biology Corp", "T1 sequence (P29320 21-983)": "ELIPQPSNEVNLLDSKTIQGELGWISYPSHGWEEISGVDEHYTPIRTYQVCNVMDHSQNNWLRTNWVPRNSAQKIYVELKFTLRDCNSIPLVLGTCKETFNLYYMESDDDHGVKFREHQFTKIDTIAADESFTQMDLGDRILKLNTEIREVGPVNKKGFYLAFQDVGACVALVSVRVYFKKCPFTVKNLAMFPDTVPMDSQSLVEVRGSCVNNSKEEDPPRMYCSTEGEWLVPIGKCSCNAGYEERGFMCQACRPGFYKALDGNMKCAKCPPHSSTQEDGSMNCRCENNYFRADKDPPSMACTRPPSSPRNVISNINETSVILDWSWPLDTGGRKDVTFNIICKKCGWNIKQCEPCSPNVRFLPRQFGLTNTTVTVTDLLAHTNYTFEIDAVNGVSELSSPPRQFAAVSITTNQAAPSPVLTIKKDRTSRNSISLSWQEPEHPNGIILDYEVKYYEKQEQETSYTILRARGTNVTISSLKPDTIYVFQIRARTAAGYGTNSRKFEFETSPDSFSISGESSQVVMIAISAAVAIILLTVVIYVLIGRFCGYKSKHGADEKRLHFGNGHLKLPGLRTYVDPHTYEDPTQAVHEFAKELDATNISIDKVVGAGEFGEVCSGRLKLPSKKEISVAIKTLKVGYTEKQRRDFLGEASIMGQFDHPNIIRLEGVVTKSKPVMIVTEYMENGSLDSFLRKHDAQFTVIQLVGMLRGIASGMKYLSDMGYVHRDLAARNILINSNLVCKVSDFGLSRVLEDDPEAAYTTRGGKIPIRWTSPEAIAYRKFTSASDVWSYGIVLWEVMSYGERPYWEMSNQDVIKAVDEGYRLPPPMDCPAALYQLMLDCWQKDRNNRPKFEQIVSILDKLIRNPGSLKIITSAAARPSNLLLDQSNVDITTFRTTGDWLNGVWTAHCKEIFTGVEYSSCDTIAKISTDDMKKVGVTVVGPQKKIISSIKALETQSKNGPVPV", "method_in_brief": "(§1)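 Activity is measured by radiolabel transfer captured on P81 filters after a 2 h room-temperature reaction of kinase, substrate and cofactors. Values are percent inhibition against DMSO.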"}, "CAMK2g": {"biological_target": "T2, CAMK2g (Homo sapiens, UniProt Q13555)", "T2 construct": "purchased Reaction Biology Corp", "T2 sequence (Q13555 whole entry)": "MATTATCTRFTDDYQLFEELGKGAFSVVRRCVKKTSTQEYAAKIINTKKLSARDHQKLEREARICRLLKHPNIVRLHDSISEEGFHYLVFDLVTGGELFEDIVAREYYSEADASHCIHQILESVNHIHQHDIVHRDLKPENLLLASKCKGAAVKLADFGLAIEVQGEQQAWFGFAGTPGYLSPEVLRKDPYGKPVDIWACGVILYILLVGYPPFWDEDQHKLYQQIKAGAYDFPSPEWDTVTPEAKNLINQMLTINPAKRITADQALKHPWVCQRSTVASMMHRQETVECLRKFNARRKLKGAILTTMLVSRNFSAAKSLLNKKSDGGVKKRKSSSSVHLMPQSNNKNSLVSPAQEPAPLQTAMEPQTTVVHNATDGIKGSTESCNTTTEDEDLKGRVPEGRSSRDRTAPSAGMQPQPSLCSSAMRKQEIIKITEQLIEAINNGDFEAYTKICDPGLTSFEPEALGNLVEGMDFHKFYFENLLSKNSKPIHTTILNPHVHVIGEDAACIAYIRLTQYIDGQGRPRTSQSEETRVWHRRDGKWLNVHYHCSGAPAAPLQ", "method_in_brief": "as §1"}, "CAMKK1": {"biological_target": "T3, CAMKK1 (Homo sapiens, UniProt Q8N5S9)", "T3 construct": "purchased Reaction Biology Corp", "method_in_brief": "as §1"}, "JAK1": {"biological_target": "T4, JAK1 (Homo sapiens, UniProt P23458)", "T4 construct": "purchased Reaction Biology Corp", "T4 sequence (P23458 whole entry)": "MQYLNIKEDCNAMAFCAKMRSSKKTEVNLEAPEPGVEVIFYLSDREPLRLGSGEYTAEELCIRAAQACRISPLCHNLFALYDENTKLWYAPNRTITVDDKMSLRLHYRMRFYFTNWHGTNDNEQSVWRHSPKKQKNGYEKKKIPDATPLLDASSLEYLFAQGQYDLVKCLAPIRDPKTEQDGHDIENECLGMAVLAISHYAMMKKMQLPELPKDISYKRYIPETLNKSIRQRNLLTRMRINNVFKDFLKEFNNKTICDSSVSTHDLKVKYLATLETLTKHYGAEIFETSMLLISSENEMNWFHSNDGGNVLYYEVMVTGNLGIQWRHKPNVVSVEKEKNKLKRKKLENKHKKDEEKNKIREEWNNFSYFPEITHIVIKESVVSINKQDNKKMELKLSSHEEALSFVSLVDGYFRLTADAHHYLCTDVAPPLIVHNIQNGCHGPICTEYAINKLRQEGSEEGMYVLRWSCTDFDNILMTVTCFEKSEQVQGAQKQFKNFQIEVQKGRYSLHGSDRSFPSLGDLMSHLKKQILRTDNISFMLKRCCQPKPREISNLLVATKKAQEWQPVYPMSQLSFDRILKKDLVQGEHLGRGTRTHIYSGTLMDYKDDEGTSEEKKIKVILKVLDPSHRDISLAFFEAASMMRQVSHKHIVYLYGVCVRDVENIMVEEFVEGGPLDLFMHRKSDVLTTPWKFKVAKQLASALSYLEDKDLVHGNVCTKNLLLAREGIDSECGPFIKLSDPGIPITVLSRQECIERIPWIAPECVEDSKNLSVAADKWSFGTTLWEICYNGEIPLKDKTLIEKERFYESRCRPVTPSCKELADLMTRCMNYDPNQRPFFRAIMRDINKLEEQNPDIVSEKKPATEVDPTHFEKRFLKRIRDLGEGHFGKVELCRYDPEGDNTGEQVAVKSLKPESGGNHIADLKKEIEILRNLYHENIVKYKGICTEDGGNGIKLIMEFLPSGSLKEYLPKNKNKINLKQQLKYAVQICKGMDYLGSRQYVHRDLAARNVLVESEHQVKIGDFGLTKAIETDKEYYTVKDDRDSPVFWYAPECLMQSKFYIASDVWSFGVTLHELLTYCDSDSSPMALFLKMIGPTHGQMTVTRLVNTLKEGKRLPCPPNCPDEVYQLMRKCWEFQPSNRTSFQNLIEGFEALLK", "method_in_brief": "as §1"}, "PKN3/PRK3": {"biological_target": "T5, PKN3/PRK3 (Homo sapiens, UniProt Q6P5Z2)", "T5 construct": "purchased Reaction Biology Corp", "method_in_brief": "as §1"}, "CDK5/p25": {"biological_target": "T6, CDK5/p25 (Homo sapiens, UniProt Q00535)", "T6 construct": "purchased Reaction Biology Corp", "T6 sequence (Q00535 whole entry)": "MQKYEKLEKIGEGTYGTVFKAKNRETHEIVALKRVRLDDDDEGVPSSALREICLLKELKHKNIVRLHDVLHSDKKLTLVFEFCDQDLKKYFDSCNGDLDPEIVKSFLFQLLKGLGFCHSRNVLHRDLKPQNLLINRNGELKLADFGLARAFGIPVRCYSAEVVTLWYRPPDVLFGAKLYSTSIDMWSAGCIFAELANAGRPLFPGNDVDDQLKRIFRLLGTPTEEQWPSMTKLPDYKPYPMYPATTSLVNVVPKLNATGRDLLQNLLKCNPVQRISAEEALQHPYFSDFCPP", "T6 sequence (Q15078 99-307 partner limits assumed)": "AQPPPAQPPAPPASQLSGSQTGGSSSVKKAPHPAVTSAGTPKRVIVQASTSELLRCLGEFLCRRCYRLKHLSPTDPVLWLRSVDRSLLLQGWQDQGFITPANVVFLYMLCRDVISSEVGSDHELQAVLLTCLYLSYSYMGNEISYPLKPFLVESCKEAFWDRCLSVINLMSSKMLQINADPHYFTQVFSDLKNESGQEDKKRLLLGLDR", "method_in_brief": "as §1"}, "TTBK1": {"biological_target": "T7, TTBK1 (Homo sapiens, UniProt Q5TCY1)", "T7 construct": "purchased Reaction Biology Corp", "T7 sequence (Q5TCY1 whole entry)": "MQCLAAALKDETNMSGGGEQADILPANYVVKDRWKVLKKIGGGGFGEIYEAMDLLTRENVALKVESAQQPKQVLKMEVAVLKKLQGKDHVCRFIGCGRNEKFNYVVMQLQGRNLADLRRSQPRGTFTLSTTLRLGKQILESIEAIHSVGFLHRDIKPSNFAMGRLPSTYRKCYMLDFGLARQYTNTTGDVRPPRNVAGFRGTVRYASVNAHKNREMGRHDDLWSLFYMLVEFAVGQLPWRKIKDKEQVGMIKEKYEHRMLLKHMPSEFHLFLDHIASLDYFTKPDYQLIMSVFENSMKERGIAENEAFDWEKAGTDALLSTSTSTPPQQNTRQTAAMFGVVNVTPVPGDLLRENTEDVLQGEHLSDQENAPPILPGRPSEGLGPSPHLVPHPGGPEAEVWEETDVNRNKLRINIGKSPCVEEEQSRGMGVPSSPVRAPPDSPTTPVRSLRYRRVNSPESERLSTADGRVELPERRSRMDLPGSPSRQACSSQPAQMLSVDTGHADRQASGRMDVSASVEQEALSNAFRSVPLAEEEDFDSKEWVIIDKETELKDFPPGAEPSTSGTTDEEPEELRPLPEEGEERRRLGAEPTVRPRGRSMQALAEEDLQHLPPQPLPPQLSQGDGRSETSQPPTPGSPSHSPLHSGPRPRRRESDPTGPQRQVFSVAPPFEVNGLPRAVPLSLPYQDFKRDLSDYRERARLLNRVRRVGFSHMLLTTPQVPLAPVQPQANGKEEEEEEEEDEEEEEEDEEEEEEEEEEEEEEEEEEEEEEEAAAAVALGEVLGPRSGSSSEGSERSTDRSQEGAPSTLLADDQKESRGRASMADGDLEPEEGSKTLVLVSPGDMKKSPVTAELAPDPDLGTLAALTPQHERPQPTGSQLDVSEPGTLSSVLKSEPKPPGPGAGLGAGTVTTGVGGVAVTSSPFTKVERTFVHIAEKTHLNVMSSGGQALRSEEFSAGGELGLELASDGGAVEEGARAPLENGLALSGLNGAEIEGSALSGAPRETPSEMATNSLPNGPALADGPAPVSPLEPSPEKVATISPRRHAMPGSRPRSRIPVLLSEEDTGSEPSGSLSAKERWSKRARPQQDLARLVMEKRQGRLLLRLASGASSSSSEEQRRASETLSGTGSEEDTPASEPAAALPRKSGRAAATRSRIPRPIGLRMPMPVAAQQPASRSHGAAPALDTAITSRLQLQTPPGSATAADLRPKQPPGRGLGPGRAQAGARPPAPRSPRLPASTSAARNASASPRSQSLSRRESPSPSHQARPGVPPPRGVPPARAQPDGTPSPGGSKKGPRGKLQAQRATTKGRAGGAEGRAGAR", "method_in_brief": "as §1"}, "KDR/VEGFR2": {"biological_target": "T8, KDR/VEGFR2 (Homo sapiens, UniProt P35968)", "T8 construct": "purchased Reaction Biology Corp", "T8 sequence (P35968 20-1356)": "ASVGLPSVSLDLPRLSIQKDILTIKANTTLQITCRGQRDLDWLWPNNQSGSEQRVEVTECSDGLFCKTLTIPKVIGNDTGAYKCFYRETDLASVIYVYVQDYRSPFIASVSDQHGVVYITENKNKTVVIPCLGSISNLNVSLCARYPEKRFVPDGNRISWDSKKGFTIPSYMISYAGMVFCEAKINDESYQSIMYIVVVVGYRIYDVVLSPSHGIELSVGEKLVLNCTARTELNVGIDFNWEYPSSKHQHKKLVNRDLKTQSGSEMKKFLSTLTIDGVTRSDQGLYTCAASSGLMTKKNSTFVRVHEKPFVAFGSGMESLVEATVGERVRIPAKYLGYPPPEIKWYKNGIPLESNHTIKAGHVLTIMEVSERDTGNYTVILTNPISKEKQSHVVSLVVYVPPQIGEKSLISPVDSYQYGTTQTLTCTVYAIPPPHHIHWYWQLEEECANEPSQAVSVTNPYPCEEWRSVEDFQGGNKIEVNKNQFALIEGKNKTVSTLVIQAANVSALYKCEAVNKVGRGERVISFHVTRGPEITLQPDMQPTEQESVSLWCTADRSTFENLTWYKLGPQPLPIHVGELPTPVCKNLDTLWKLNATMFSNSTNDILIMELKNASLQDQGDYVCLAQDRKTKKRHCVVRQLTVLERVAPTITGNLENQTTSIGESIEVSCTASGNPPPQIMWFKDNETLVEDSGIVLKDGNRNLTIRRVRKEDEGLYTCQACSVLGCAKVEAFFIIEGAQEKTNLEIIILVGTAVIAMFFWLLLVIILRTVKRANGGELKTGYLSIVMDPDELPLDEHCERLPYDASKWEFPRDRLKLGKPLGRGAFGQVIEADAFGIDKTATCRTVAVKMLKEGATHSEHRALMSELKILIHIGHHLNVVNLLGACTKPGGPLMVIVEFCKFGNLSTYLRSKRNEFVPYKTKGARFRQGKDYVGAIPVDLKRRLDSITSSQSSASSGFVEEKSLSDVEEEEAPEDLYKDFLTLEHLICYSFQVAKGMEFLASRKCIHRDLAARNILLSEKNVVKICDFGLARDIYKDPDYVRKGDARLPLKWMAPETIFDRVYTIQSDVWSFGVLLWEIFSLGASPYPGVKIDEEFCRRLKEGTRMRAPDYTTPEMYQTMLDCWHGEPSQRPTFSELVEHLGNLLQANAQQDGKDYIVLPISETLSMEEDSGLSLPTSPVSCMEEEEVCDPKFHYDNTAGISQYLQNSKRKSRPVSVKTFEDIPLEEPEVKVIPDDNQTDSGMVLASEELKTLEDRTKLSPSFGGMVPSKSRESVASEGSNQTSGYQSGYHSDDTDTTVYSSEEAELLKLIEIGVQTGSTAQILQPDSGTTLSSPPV", "method_in_brief": "as §1"}, "YES/YES1": {"biological_target": "T9, YES/YES1 (Homo sapiens, UniProt P07947)", "T9 construct": "purchased Reaction Biology Corp", "method_in_brief": "as §1"}, "FAK/PTK2": {"biological_target": "T10, FAK/PTK2 (Homo sapiens, UniProt Q05397)", "T10 construct": "purchased Reaction Biology Corp", "method_in_brief": "as §1"}, "GRK7": {"biological_target": "T11, GRK7 (Homo sapiens, UniProt Q8WTQ7)", "T11 construct": "purchased Reaction Biology Corp", "T11 sequence (Q8WTQ7 1-553)": "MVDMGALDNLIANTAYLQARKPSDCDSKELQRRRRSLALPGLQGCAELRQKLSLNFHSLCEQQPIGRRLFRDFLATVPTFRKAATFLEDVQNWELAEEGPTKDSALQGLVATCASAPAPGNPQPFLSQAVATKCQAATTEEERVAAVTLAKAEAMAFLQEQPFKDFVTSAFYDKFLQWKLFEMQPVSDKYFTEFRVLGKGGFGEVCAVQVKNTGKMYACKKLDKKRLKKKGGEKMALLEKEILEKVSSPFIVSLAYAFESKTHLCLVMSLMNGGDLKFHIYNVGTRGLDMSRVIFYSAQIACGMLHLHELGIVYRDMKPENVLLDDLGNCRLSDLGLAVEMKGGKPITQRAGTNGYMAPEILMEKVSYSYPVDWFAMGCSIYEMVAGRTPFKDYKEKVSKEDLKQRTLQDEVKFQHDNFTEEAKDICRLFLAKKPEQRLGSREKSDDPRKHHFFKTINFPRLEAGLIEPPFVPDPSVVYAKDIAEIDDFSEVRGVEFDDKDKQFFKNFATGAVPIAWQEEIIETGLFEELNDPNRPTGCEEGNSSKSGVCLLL", "method_in_brief": "as §1"}, "[1]": {"details": "read-out: % Enzyme Activity (relative to DMSO controls) Run 1"}, "[2]": {"details": "read-out: % Enzyme Activity (relative to DMSO controls) Run 2"}}, "note": "Like-named read-outs stand apart in the source and are kept apart here.", "data": [{"smiles": "C=CC(=O)Nc1cccc(Nc2nc(Nc3ccc(OCCOC)c(F)c3)ncc2F)c1", "note": "[Compound 2]", "values": [{"measurement": "inhibition at 3 µM", "setting": "EPHA3", "value": 1.81, "unit": "%"}, {"measurement": "remaining activity at 3 µM", "setting": "EPHA3; [1]", "value": 96.2, "unit": "%"}, {"measurement": "remaining activity at 3 µM", "setting": "EPHA3; [2]", "value": 100, "unit": "%"}, {"measurement": "inhibition at 3 µM", "setting": "CAMK2g", "value": -7.18, "unit": "%"}, {"measurement": "remaining activity at 3 µM", "setting": "CAMK2g; [1]", "value": 104, "unit": "%"}, {"measurement": "remaining activity at 3 µM", "setting": "CAMK2g; [2]", "value": 111, "unit": "%"}, {"measurement": "inhibition at 3 µM", "setting": "CAMKK1", "value": 9.31, "unit": "%"}, {"measurement": "remaining activity at 3 µM", "setting": "CAMKK1; [1]", "value": 93.5, "unit": "%"}, {"measurement": "remaining activity at 3 µM", "setting": "CAMKK1; [2]", "value": 87.9, "unit": "%"}, {"measurement": "inhibition at 3 µM", "setting": "JAK1", "value": 40.6, "unit": "%"}, {"measurement": "remaining activity at 3 µM", "setting": "JAK1; [1]", "value": 59.7, "unit": "%"}, {"measurement": "remaining activity at 3 µM", "setting": "JAK1; [2]", "value": 59, "unit": "%"}, {"measurement": "inhibition at 3 µM", "setting": "PKN3/PRK3", "value": -7.32, "unit": "%"}, {"measurement": "remaining activity at 3 µM", "setting": "PKN3/PRK3; [1]", "value": 106, "unit": "%"}, {"measurement": "remaining activity at 3 µM", "setting": "PKN3/PRK3; [2]", "value": 108, "unit": "%"}, {"measurement": "inhibition at 3 µM", "setting": "CDK5/p25", "value": 9.1, "unit": "%"}, {"measurement": "remaining activity at 3 µM", "setting": "CDK5/p25; [1]", "value": 89.5, "unit": "%"}, {"measurement": "remaining activity at 3 µM", "setting": "CDK5/p25; [2]", "value": 92.3, "unit": "%"}, {"measurement": "inhibition at 3 µM", "setting": "TTBK1", "value": -1.65, "unit": "%"}, {"measurement": "remaining activity at 3 µM", "setting": "TTBK1; [1]", "value": 101, "unit": "%"}, {"measurement": "remaining activity at 3 µM", "setting": "TTBK1; [2]", "value": 102, "unit": "%"}, {"measurement": "inhibition at 3 µM", "setting": "KDR/VEGFR2", "value": 17.7, "unit": "%"}, {"measurement": "remaining activity at 3 µM", "setting": "KDR/VEGFR2; [1]", "value": 83.3, "unit": "%"}, {"measurement": "remaining activity at 3 µM", "setting": "KDR/VEGFR2; [2]", "value": 81.2, "unit": "%"}, {"measurement": "inhibition at 3 µM", "setting": "YES/YES1", "value": 81.5, "unit": "%"}, {"measurement": "remaining activity at 3 µM", "setting": "YES/YES1; [1]", "value": 18.7, "unit": "%"}, {"measurement": "remaining activity at 3 µM", "setting": "YES/YES1; [2]", "value": 18.3, "unit": "%"}, {"measurement": "inhibition at 3 µM", "setting": "FAK/PTK2", "value": 37.1, "unit": "%"}, {"measurement": "remaining activity at 3 µM", "setting": "FAK/PTK2; [1]", "value": 62.8, "unit": "%"}, {"measurement": "remaining activity at 3 µM", "setting": "FAK/PTK2; [2]", "value": 62.9, "unit": "%"}, {"measurement": "inhibition at 3 µM", "setting": "GRK7", "value": 9.96, "unit": "%"}, {"measurement": "remaining activity at 3 µM", "setting": "GRK7; [1]", "value": 89.1, "unit": "%"}, {"measurement": "remaining activity at 3 µM", "setting": "GRK7; [2]", "value": 90.9, "unit": "%"}]}]}
